From PubChem BioAssay (NCI)
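Interpolation was linear, between the two tested concentrations surrounding the appropriate level; five concentrations were tested over 48 hours in 96-well plates. Abbreviation: GI50, concentration required for 50% inhibition of growth. The concentration for full growth arrest is given as TGI.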

Experiments:
Assay in all cases: DTP human tumour cell line panel, 48 h
DU-145 prostate = system: DU-145 prostate
SK-OV-3 ovarian = system: SK-OV-3 ovarian
HCT-116 colon = system: HCT-116 colon
TK-10 renal = system: TK-10 renal
OVCAR-8 ovarian = system: OVCAR-8 ovarian
786-0 renal = system: 786-0 renal
MDA-MB-231 breast = system: MDA-MB-231 breast
SF-295 CNS = system: SF-295 CNS
MOLT-4 leukemia = system: MOLT-4 leukemia
HL-60(TB) leukemia = system: HL-60(TB) leukemia
OVCAR-5 ovarian = system: OVCAR-5 ovarian
K-562 leukemia = system: K-562 leukemia
UACC-62 melanoma = system: UACC-62 melanoma
PC-3 prostate = system: PC-3 prostate
COLO 205 colon = system: COLO 205 colon
SF-268 CNS = system: SF-268 CNS
HCC-2998 colon = system: HCC-2998 colon
SW-620 colon = system: SW-620 colon
A498 renal = system: A498 renal
KM12 colon = system: KM12 colon
SR leukemia = system: SR leukemia
UO-31 renal = system: UO-31 renal
SNB-19 CNS = system: SNB-19 CNS
T-47D breast = system: T-47D breast
SK-MEL-28 melanoma = system: SK-MEL-28 melanoma
NCI-H226 lung = system: NCI-H226 lung
HOP-62 NSCLC = system: HOP-62 NSCLC
U251 CNS = system: U251 CNS
MCF7 breast = system: MCF7 breast
LOX IMVI melanoma = system: LOX IMVI melanoma
HS 578T breast = system: HS 578T breast
MDA-MB-435 = system: MDA-MB-435
HOP-92 NSCLC = system: HOP-92 NSCLC
RPMI-8226 leukemia = system: RPMI-8226 leukemia
BT-549 breast = system: BT-549 breast
RXF 393 renal = system: RXF 393 renal
NCI-H522 lung = system: NCI-H522 lung
IGROV1 ovarian = system: IGROV1 ovarian
OVCAR-3 ovarian = system: OVCAR-3 ovarian
HT29 colon = system: HT29 colon
HCT-15 colon = system: HCT-15 colon
EKVX NSCLC = system: EKVX NSCLC
SK-MEL-5 melanoma = system: SK-MEL-5 melanoma
SK-MEL-2 melanoma = system: SK-MEL-2 melanoma
SN12C renal = system: SN12C renal
CAKI-1 renal = system: CAKI-1 renal
SF-539 CNS = system: SF-539 CNS
NCI-H460 lung = system: NCI-H460 lung
NCI/ADR-RES ovarian = system: NCI/ADR-RES ovarian
NCI-H23 lung = system: NCI-H23 lung
ACHN renal = system: ACHN renal
A549 NSCLC = system: A549 NSCLC
SNB-75 CNS = system: SNB-75 CNS
M14 melanoma = system: M14 melanoma
OVCAR-4 ovarian = system: OVCAR-4 ovarian
UACC-257 melanoma = system: UACC-257 melanoma

For `CCOC(=O)C(=Cc1ccc(-c2ccccc2)cc1)C(=O)OCC`, the GI50 (DU-145 prostate) was 3.12 µM, the TGI (DU-145 prostate) was 11.1 µM and the GI50 (SK-OV-3 ovarian) was 11.7 µM. For the same compound, the TGI (SK-OV-3 ovarian) was 24.8 µM, the GI50 (HCT-116 colon) was 2.13 µM and the TGI (HCT-116 colon) was 4.91 µM. The GI50 (TK-10 renal) was 3.91 µM, the TGI (TK-10 renal) was 13.3 µM and the GI50 (OVCAR-8 ovarian) was 2.85 µM. For the same compound, the TGI (OVCAR-8 ovarian) was > 100 µM, the GI50 (786-0 renal) was 2.06 µM and the TGI (786-0 renal) was 4.16 µM. It also gave a GI50 (MDA-MB-231 breast) of 2.98 µM, a TGI (MDA-MB-231 breast) of 7.2 µM and a GI50 (SF-295 CNS) of 5.22 µM. It also gave a TGI (SF-295 CNS) of 18.4 µM, a GI50 (MOLT-4 leukemia) of 2.46 µM and a TGI (MOLT-4 leukemia) of 6.59 µM. It also gave a GI50 (HL-60(TB) leukemia) of 2.1 µM, a TGI (HL-60(TB) leukemia) of 4.7 µM and a GI50 (OVCAR-5 ovarian) of 2.67 µM. For the same compound, the TGI (OVCAR-5 ovarian) was 6.48 µM, the GI50 (K-562 leukemia) was 3.17 µM and the TGI (K-562 leukemia) was > 100 µM. For the same compound, the GI50 (UACC-62 melanoma) was 1.76 µM, the TGI (UACC-62 melanoma) was 3.69 µM and the GI50 (PC-3 prostate) was 2.51 µM. It also gave a TGI (PC-3 prostate) of 6.09 µM, a GI50 (COLO 205 colon) of 3.45 µM and a TGI (COLO 205 colon) of 11.1 µM. It also gave a GI50 (SF-268 CNS) of 3.06 µM, a TGI (SF-268 CNS) of 11 µM and a GI50 (HCC-2998 colon) of 1.89 µM. The TGI (HCC-2998 colon) was 3.54 µM, the GI50 (SW-620 colon) was 2.07 µM and the TGI (SW-620 colon) was 4.28 µM. For the same compound, the GI50 (A498 renal) was 3.74 µM, the TGI (A498 renal) was 12.8 µM and the GI50 (KM12 colon) was 3.37 µM. It also gave a TGI (KM12 colon) of 12.1 µM, a GI50 (SR leukemia) of 3.13 µM and a TGI (SR leukemia) of 38.3 µM. It also gave a GI50 (UO-31 renal) of 1.71 µM, a TGI (UO-31 renal) of 3.29 µM and a GI50 (SNB-19 CNS) of 2.21 µM. It also gave a TGI (SNB-19 CNS) of 5.14 µM, a GI50 (T-47D breast) of 2.02 µM and a TGI (T-47D breast) of 4.74 µM. It also gave a GI50 (SK-MEL-28 melanoma) of 1.95 µM, a TGI (SK-MEL-28 melanoma) of 4.23 µM and a GI50 (NCI-H226 lung) of 2.4 µM. The TGI (NCI-H226 lung) was 5.21 µM, the GI50 (HOP-62 NSCLC) was 3.55 µM and the TGI (HOP-62 NSCLC) was 11.3 µM. It also gave a GI50 (U251 CNS) of 1.68 µM, a TGI (U251 CNS) of 5.67 µM and a GI50 (MCF7 breast) of 2.69 µM. For the same compound, the TGI (MCF7 breast) was 13.2 µM, the GI50 (LOX IMVI melanoma) was 1.72 µM and the TGI (LOX IMVI melanoma) was 3.21 µM. For the same compound, the GI50 (HS 578T breast) was 4.36 µM, the TGI (HS 578T breast) was 25.7 µM and the GI50 (MDA-MB-435) was 2.55 µM. For the same compound, the TGI (MDA-MB-435) was 7.57 µM, the GI50 (HOP-92 NSCLC) was 2.42 µM and the TGI (HOP-92 NSCLC) was 6.72 µM. The GI50 (RPMI-8226 leukemia) was 2.43 µM, the TGI (RPMI-8226 leukemia) was 7.04 µM and the GI50 (BT-549 breast) was 2.64 µM. For the same compound, the TGI (BT-549 breast) was 7.03 µM, the GI50 (RXF 393 renal) was 1.95 µM and the TGI (RXF 393 renal) was 3.74 µM. It also gave a GI50 (NCI-H522 lung) of 1.68 µM, a TGI (NCI-H522 lung) of 3.38 µM and a GI50 (IGROV1 ovarian) of 2.29 µM. It also gave a TGI (IGROV1 ovarian) of 5.61 µM, a GI50 (OVCAR-3 ovarian) of 2.86 µM and a TGI (OVCAR-3 ovarian) of 8.18 µM. The GI50 (HT29 colon) was 2.04 µM, the TGI (HT29 colon) was 3.88 µM and the GI50 (HCT-15 colon) was 1.93 µM. The TGI (HCT-15 colon) was 4.84 µM, the GI50 (EKVX NSCLC) was 10.3 µM and the TGI (EKVX NSCLC) was 22.1 µM. The GI50 (SK-MEL-5 melanoma) was 2.39 µM, the TGI (SK-MEL-5 melanoma) was 5.75 µM and the GI50 (SK-MEL-2 melanoma) was 3.81 µM. It also gave a TGI (SK-MEL-2 melanoma) of 11.4 µM, a GI50 (SN12C renal) of 2.02 µM and a TGI (SN12C renal) of 4.23 µM. It also gave a GI50 (CAKI-1 renal) of 3.24 µM, a TGI (CAKI-1 renal) of 10.8 µM and a GI50 (SF-539 CNS) of 1.8 µM. It also gave a TGI (SF-539 CNS) of 3.35 µM, a GI50 (NCI-H460 lung) of 5.04 µM and a TGI (NCI-H460 lung) of 17.2 µM. The GI50 (NCI/ADR-RES ovarian) was 3 µM, the TGI (NCI/ADR-RES ovarian) was 8.77 µM and the GI50 (NCI-H23 lung) was 2.22 µM. It also gave a TGI (NCI-H23 lung) of 6.34 µM, a GI50 (ACHN renal) of 1.83 µM and a TGI (ACHN renal) of 3.42 µM. The GI50 (A549 NSCLC) was 3.61 µM, the TGI (A549 NSCLC) was > 100 µM and the GI50 (SNB-75 CNS) was 3.89 µM. It also gave a TGI (SNB-75 CNS) of 16.3 µM, a GI50 (M14 melanoma) of 3.14 µM and a TGI (M14 melanoma) of 11.1 µM. The GI50 (OVCAR-4 ovarian) was 6.3 µM, the TGI (OVCAR-4 ovarian) was 19.9 µM and the GI50 (UACC-257 melanoma) was 3.53 µM. It also gave a TGI (UACC-257 melanoma) of 9.29 µM.
